Experimental data reported in patent US8506927B2, “Pegylated fluorobenzamide analogues, their synthesis and use in diagnostic imaging” (Washington University, priority 2011, dated 2013).

Legend:
σ2 receptors = σ2 receptors (Homo sapiens, UniProt Q5BJF2); settings: stated in words with literature references; cited from earlier work
σ1 receptors = σ1 receptors (Homo sapiens, UniProt Q99720); settings: stated in words with literature references; cited from earlier work
σ2 receptor = biological target: T1, σ2 receptor (Rattus norvegicus, UniProt Q5U3Y7); experiment: σ2 receptor binding assay, [3H]DTG competition in the presence of (+)-pentazocine; settings: for Ki: rat liver membrane homogenates, ~5 nM [3H]DTG with 1 μM (+)-pentazocine, mean ± SEM, read-out: σ2 binding affinity (Ki); for Ratio (σ1/σ2): ratio of Ki σ1 to Ki σ2
T1 construct: using rat liver membrane homogenates (˜300 μg protein); from tissue; host or cells: rat liver membrane homogenate
T1 sequence (Q5U3Y7 1-176): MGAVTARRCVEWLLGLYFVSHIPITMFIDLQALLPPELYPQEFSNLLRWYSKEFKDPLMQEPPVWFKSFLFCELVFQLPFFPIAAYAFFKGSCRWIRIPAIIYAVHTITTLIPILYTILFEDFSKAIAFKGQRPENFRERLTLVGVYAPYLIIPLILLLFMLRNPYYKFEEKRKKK
Method: (§1) This example illustrates in vitro binding studies with the compounds of the present teachings. In this example, in vitro binding studies can be conducted in order to measure the affinity of the target compounds for σ1 and σ2 receptors.
(§2) In these assays, pegylated sigma ligands of the present teachings can be dissolved in N,N-dimethylformamide (DMF), DMSO or ethanol, and can then be diluted in 50 mM Tris-HCl buffer containing 150 mM NaCl and 100 mM EDTA at pH 7.4 prior to performing σ1 and σ2 receptor binding assays Procedures for isolating the membrane homogenates and performing the σ1 and σ2 receptor binding assays have been described in detail previously (Xu, J., et al., Eur. J. Pharmacol. […] (1-3): 8-17, 2005). Briefly, the σ1 receptor binding assays can be conducted in 96-well plates using guinea pig brain membrane homogenates (˜300 μg protein) and ˜5 nM [^3H](+)-pentazocine (34.9 Ci/mmol, Perkin Elmer, Boston, Mass.). The total incubation time can be 90 min at room temperature. Nonspecific binding can be determined from samples that contain 10 μM of cold haloperidol. After 90 min, the reaction can be terminated by the addition of 150 μL of ice-cold wash buffer (10 mM Tris-HCl, 150 mM NaCl, pH 7.4) using a 96 channel transfer pipette (Fisher Scientific, Pittsburgh, Pa.). The samples can be harvested and filtered rapidly through a 96-well fiber glass filter plate (Millipore, Billerica, Mass.) that has been presoaked with 100 μL of 50 mM Tris-HCl buffer at pH 8.0 for 1 h. Each filter can be washed 3 times with 200 μL of ice-cold wash buffer, and the filter can be counted in a Wallac 1450 MicroBeta liquid scintillation counter (Perkin Elmer, Boston, Mass.).
σ2 receptor binding assays can be conducted using rat liver membrane homogenates (˜300 μg protein) and ˜5 nM [^3H]DTG (58.1 Ci/mmol, Perkin Elmer, Boston, Mass.) in the presence of 1 μM (+)-pentazocine. The incubation time can be […] at room temperature. Nonspecific binding can be determined from samples that contain 10 μM of cold haloperidol. All other procedures can be identical to those described for the σ1 receptor binding assay above.
(§3) Data from the competitive inhibition experiments can be modeled using nonlinear regression analysis to determine the concentration that inhibits 50% of the specific binding of the radioligand (IC50 value). Competitive curves can be best fit to a one-site fit and give pseudo-Hill coefficients of 0.6-1.0. Ki values can be calculated using the method of Cheng and Prusoff (Biochem. Pharmacol. 22: 3099-3108, 1973) and can be presented as the mean±1 SEM. For these calculations, one can use a Kd value of 7.89 nM for [^3H](+)-pentazocine and guinea pig brain; for [^3H]DTG and rat liver, for example 30.73 nM.

σ1 receptor = biological target: T2, σ1 receptor (Cavia porcellus, UniProt Q60492); experiment: σ1 receptor binding assay, [3H](+)-pentazocine competition; settings: guinea pig brain membrane homogenates, ~5 nM [3H](+)-pentazocine; mean ± SEM; read-out: σ1 binding affinity (Ki)
T2 construct: using guinea pig brain membrane homogenates (˜300 μg protein); from tissue; host or cells: guinea pig brain membrane homogenate
T2 sequence (Q60492 whole entry): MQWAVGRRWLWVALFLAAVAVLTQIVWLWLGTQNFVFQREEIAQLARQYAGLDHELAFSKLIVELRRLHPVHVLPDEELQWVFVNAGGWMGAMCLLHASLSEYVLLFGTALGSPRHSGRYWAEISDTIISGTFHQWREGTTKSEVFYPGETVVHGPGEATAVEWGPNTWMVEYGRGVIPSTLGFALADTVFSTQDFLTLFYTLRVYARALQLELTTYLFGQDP
Method: as §1, §2, §3

[1] = test system: EMT-6 mouse mammary adenocarcinoma tumor; experiment: Biodistribution / tumor uptake of 18F-labeled compounds in tumor-bearing mice; assay type: in vivo; settings: EMT-6 tumor-bearing female Balb/c mice, versus non-pegylated analog (m=1; X1=H; X2=Br), FIG. 2
Method: This example illustrates in vivo evaluation of compounds of the present teachings. All animal experiments can be conducted in compliance with the Guidelines for the Care and Use of Research Animals established by Washington University's Animal Studies Committee. EMT-6 mouse mammary adenocarcinoma cells (5×10^5 cells in 100 uL of phosphate-buffered saline) can be implanted subcutaneously in the scapular region of female Balb/c mice (˜2-month old and 17-22 g; Charles River Laboratories). The biodistribution studies can be initiated 7-10 days after implantation when the tumor size can be ˜0.2 cm^3 (˜200 mg).
For biodistribution studies, 10-120 μCi of an [^18F]-radiolabeled pegylated compound of the present teachings in 100-150 uL of saline can be injected via the tail vein into EMT-6 tumor-bearing female Balb/c mice. Groups of at least 4 mice can be used for each time point. At 5, 30, 60, and 120 min after injection, the mice can be euthanized, and samples of blood, lung, liver, kidney, muscle, fat, heart, brain, bone and tumor can be removed, weighed and counted in a Beckman Gamma 8000 well counter. After counting, the percentage of the injected dose per gram of tissue (% ID/g) can be calculated. The tumor/organ ratios can be calculated by dividing the % ID/g of the tumor by the % ID/g of each organ.
This example illustrates tumor uptake of ^18F-labeled pegylated compounds 6c, 6d and 6g versus a nonpegylated analog (m=1; X1=H; X2=Br).
In these experiments, various ^18F-labeled pegylated compounds of the present teachings as well as a non-pegylated analog were administered to tumor-bearing mice as described in Example 22. The pegylated compounds tested,
[drawing 27] were 6c (m=2; X1=H; X2=Br), 6d (m=3; X1=H; X2=Br) and 6g (m=2; X1=OCH3; X2=Br). A non-pegylated analog (m=1; X1=H; X2=Br) was also tested.

σ1 receptors, sequence (Q99720 whole entry): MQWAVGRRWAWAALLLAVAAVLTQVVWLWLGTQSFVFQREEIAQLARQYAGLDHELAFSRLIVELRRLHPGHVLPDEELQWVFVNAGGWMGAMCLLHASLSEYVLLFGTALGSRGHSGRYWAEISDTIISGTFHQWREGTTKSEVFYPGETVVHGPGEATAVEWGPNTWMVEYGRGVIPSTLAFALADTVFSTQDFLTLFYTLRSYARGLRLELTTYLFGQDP
σ2 receptors, sequence (Q5BJF2 whole entry): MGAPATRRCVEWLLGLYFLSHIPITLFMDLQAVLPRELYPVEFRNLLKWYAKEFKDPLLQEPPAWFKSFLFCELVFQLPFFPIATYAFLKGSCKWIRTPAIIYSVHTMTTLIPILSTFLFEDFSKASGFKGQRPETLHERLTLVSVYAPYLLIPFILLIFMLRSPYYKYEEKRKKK

| SMILES | Ki (σ2 receptor) [nM] | Ratio (σ1/σ2) (σ2 receptor) | Ki (σ1 receptor) [nM] | rate of washout [1] | affinity for σ2 receptors (σ2 receptors) | affinity for σ1 receptors (σ1 receptors) | tumor uptake [1] |
| --- | --- | --- | --- | --- | --- | --- | --- |
| O=C(Cc1cccc(Br)c1)NC1CCN(Cc2ccc(F)cc2)CC1 [Yun-143, N-(4-fluorobenzyl)piperidinyl-4-(3-bromophenyl)acetamide] | – | – | – | – | high affinity | high affinity | – |
| COc1cc2c(cc1OC)CN(CCCCNC(=O)c1cc(I)ccc1OCCOCCOCCF)CC2 [6f, N-(4-(6,7-dimethoxy-3,4-dihydroisoquinolin-2(1H)-yl)butyl)-2-(2-(2-(2-fluoroethoxy)ethoxy)ethoxy)-5-iodobenzamide] | 7.47 ± 1.2 | 171 | 1280 | – | – | – | – |
| COc1cc2c(cc1OC)CN(CCCCNC(=O)c1cc(I)ccc1OCCOCCF)CC2 [6e] | 6.29 ± 0.6 | 72 | 451 ± 56 | – | – | – | – |
| COc1cc2c(cc1OC)CN(CCCCNC(=O)c1cc(Br)cc(OC)c1OCCOCCOCCF)CC2 [6h] | 33 | 276 | 9100 | – | – | – | – |
| COc1cc2c(cc1OC)CN(CCCCNC(=O)c1cc(Br)ccc1OCCOCCF)CC2 [6c, 5-Bromo-N-(4-(6,7-dimethoxy-3,4-dihydroisoquinolin-2(1H)-yl)butyl)-2-(2-(2-fluoroethoxy)ethoxy)benzamide] | 1.38 ± 0.2 | 755 | 1040 | slower rate of washout | – | – | higher tumor uptake compared to the non-pegylated analog |
| COc1cc2c(cc1OC)CN(CCCCNC(=O)c1cc(Br)cc(OC)c1OCCOCCF)CC2 [6g, 5-bromo-N-(4-(6,7-dimethoxy-3,4-dihydroisoquinolin-2(1H)-yl)butyl)-2-(2-(2-fluoroethoxy)ethoxy)-3-methoxybenzamide] | 4.67 ± 0.6 | 143 | 669 ± 101 | slower rate of washout | – | – | higher tumor uptake compared to the non-pegylated analog |

Further lines, with some results ahead:

| Ki (σ2 receptor) [nM] | Ratio (σ1/σ2) (σ2 receptor) | Ki (σ1 receptor) [nM] | rate of washout [1] | SMILES | affinity for σ2 receptors (σ2 receptors) | affinity for σ1 receptors (σ1 receptors) | tumor uptake [1] |
| --- | --- | --- | --- | --- | --- | --- | --- |
| 6.75 ± 0.9 | 41 | 277 ± 38 | – | COc1cc2c(cc1OC)CN(CCCCNC(=O)c1cc(C)ccc1OCCOCCF)CC2 [6a, N-(4-(6,7-dimethoxy-3,4-dihydroisoquinolin-2(1H)-yl)butyl)-2-(2-(2-fluoroethoxy)ethoxy)-5-methylbenzamide] | – | – | – |
| 9.8 ± 0.4 | 103 | 1010 | slower rate of washout | COc1cc2c(cc1OC)CN(CCCCNC(=O)c1cc(Br)ccc1OCCOCCOCCF)CC2 [6d, 5-Bromo-N-(4-(6,7-dimethoxy-3,4-dihydroisoquinolin-2(1H)-yl)butyl)-2-(2-(2-(2-fluoroethoxy)ethoxy)ethoxy)benzamide] | – | – | higher tumor uptake compared to the non-pegylated analog |
| 10.1 ± 0.4 | 190 | 1920 | – | COc1cc2c(cc1OC)CN(CCCCNC(=O)c1cc(C)ccc1OCCOCCOCCF)CC2 [6b, N-(4-(6,7-dimethoxy-3,4-dihydroisoquinolin-2(1H)-yl)butyl)-2-(2-(2-(2-fluoroethoxy)ethoxy)ethoxy)-5-methylbenzamide] | – | – | – |
